What was measured:
[1] = 100 kPa, Liquid, Concentric cylinders viscometry
[2] = xn = mol fraction of the nth substance listed; details: Liquid, x1 = 1; for mass density: Vibrating tube method; for viscosity: Concentric cylinders viscometry

CCCCO [butan-1-ol]
[1]
Details	viscosity [mPa·s]
323.15 K	1.406
333.15 K	1.134

CCCCO [butan-1-ol] + Cc1ccc(C)c(C)c1
[2]
Details	mass density [kg/m3]	viscosity [mPa·s]
273.15 K, 100 kPa	824.6	–
273.15 K, 1000 kPa	825.2	–
273.15 K, 5000 kPa	827.7	–
273.15 K, 10000 kPa	830.8	–
273.15 K, 20000 kPa	836.7	–
273.15 K, 30000 kPa	842.3	–
273.15 K, 40000 kPa	847.6	–
273.15 K, 50000 kPa	852.5	–
273.15 K, 60000 kPa	857.2	–
273.15 K, 70000 kPa	861.7	–
273.15 K, 80000 kPa	866	–
273.15 K, 90000 kPa	870.1	–
273.15 K, 100000 kPa	874	–
273.15 K, 120000 kPa	881.5	–
273.15 K, 140000 kPa	888.5	–
293.15 K, 100 kPa	809.6	2.953
293.15 K, 1000 kPa	810.2	–
293.15 K, 5000 kPa	813.1	–
293.15 K, 10000 kPa	816.5	–
293.15 K, 20000 kPa	822.9	–
293.15 K, 30000 kPa	829	–
293.15 K, 40000 kPa	834.7	–
293.15 K, 50000 kPa	840	–
293.15 K, 60000 kPa	845	–
293.15 K, 70000 kPa	849.8	–
293.15 K, 80000 kPa	854.4	–
293.15 K, 90000 kPa	858.7	–
293.15 K, 100000 kPa	862.9	–
293.15 K, 120000 kPa	870.8	–
293.15 K, 140000 kPa	878.2	–
303.15 K, 100 kPa	–	2.263
313.15 K, 100 kPa	794.1	1.769
313.15 K, 1000 kPa	794.8	–
313.15 K, 5000 kPa	798	–
313.15 K, 10000 kPa	801.8	–
313.15 K, 20000 kPa	808.9	–
313.15 K, 30000 kPa	815.5	–
313.15 K, 40000 kPa	821.6	–
313.15 K, 50000 kPa	827.4	–
313.15 K, 60000 kPa	832.7	–
313.15 K, 70000 kPa	837.8	–
313.15 K, 80000 kPa	842.7	–
313.15 K, 90000 kPa	847.3	–
313.15 K, 100000 kPa	851.7	–
313.15 K, 120000 kPa	860	–
313.15 K, 140000 kPa	867.8	–
323.15 K, 100 kPa	–	1.406
333.15 K, 100 kPa	778	1.134
333.15 K, 1000 kPa	778.8	–
333.15 K, 5000 kPa	782.4	–
333.15 K, 10000 kPa	786.5	–
333.15 K, 20000 kPa	794.4	–
333.15 K, 30000 kPa	801.6	–
333.15 K, 40000 kPa	808.2	–
333.15 K, 50000 kPa	814.4	–
333.15 K, 60000 kPa	820.1	–
333.15 K, 70000 kPa	825.6	–
333.15 K, 80000 kPa	830.7	–
333.15 K, 90000 kPa	835.6	–
333.15 K, 100000 kPa	840.3	–
333.15 K, 120000 kPa	849	–
333.15 K, 140000 kPa	857.1	–
